The values that follow come from US7842715B2, “N-benzoyl- and N-benzylpyrrolidin-3-ylamines as histamine-3 antagonists” (Wyeth LLC, priority 2006, dated 2010).

One may read the melting point as the temperature of the solid-liquid transition. By Kb is commonly meant the equilibrium dissociation constant of an antagonist, usually derived from a functional assay.

Counter-ions that a name gives are not always drawn.

The target in one data set is T1, Histamine Receptor H3 (Homo sapiens, UniProt Q9Y5N1).
T1 construct: expressed in transfected cells
T1 sequence (Q9Y5N1 whole entry): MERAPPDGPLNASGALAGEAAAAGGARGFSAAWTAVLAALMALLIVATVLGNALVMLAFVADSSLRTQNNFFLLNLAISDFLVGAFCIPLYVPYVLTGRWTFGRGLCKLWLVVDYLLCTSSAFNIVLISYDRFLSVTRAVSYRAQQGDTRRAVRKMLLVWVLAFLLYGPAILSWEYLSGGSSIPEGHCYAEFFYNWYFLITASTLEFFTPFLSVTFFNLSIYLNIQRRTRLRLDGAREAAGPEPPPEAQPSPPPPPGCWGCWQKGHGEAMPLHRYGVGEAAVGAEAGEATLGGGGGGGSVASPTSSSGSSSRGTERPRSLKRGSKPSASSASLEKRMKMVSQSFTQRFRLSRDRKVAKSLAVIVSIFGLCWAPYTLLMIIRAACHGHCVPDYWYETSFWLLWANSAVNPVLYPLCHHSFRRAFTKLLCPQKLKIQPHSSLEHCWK
The data set is described as follows: Cyclic AMP assay for histamine receptor H3 antagonism activity. Conditions: stable H3 cells; histamine plus 10 μM forskolin; 30 min at 30° C.; read-out: cAMP Kb. It is filed as cell-based. The protocol: Cyclic AMP Assay for Histamine Receptor H3 Antagonism Activity.
Stable H3 cells are maintained in tissue culture flask in DMEM with high glucose, 10% FBS, 1× pen/strep, 500 ug/ml GY18, until experiment. Culture media is removed and cells are washed twice with PBS w/ Ca++ and Mg++ plus 500 μM IBMX. Cells are then detached by tapping on the side of the flask and resuspend in the same buffer. Two thousand cells/well are incubated with […] histamine plus 10 μM forskolin plus various concentrations of compounds in a total volume of 30 μL in 96 well plates for 30 min at 30° C. Final test compound concentrations range from 10^-4M to 10-9.5M at full log dilutions. Cyclic AMP levels are measured using HitHunter cAMP kit from Discoverx, cat# 900041 according to manufacturer's instruction. Chemiluminescence signals are detected using Top Count (Packard). Cyclic AMP levels in control cells receiving 10 μM forskolin plus 100 nM histamine are considered 0%, and in cells receiving 10 uM forskolin plus 100 nM histamine plus 1 μM clobenpropit are considered 100%. Data are expressed as % control and analyzed using Prizm soft ware. The Kb values are calculated using the following equation, KB=EC50 or IC50/[1+(ligand/Kd)].

In the case of `Cc1ccc(Oc2ccc(C(=O)N3CC[C@H](N4CCCC4)C3)cc2)cc1` (as salt: hydrochloride) [Example 35, (3′S)-1′-[4-(4-methylphenoxy)benzoyl]-1,3′-bipyrrolidine], the melting point was 98 to 100 °C.

Consider `Cc1csc2c(Nc3ccc(C(=O)N4CCC(N(C)C)C4)cc3)ncnc12` (stereo not drawn) [Example 7, N-(4-{[3-(dimethylamino)pyrrolidin-1-yl]carbonyl}phenyl)-7-methylthieno[3,2-d]pyrimidin-4-amine], for which the Kb on Histamine Receptor H3 amounted to 14 nM.

On to `COc1cccc(Oc2ccc(C(=O)N3CC[C@H](N4CCCC4)C3)cc2)c1` (as salt: hydrochloride) [Example 36, (3′S)-1′-[4-(3-methoxyphenoxy)benzoyl]-1,3′-bipyrrolidine], for which the melting point was 82 to 84 °C.

Regarding `CN(C)C1CCN(C(=O)c2ccc(NC(=O)c3ccc4ccccc4n3)cc2)C1` (stereo not drawn) [Example 17, N-(4-{[3-(dimethylamino)pyrrolidin-1-yl]carbonyl}phenyl)quino-line-2-carboxamide], at Histamine Receptor H3, the Kb worked out at 57 nM.

The compound `Cc1cc(Cl)ccc1Oc1ccc(C(=O)N2CC[C@H](N3CCCC3)C2)cc1` (as salt: hydrochloride) [Example 39, (3′S)-1′-[4-(4-chloro-2-methylphenoxy)benzoyl]-1,3′-bipyrrolidine] had a melting point of 123 to 125 °C.

For `Cc1ccc(Oc2ccc(C(=O)N3CC[C@H](N4CCCC4)C3)cc2)c(Cl)c1` (as salt: hydrochloride) [Example 40, (3′S)-1′-[4-(2-chloro-4-methylphenoxy)benzoyl]-1,3′-bipyrrolidine], the melting point is 124 to 126 °C.
